Laboratory results reported in ChEMBL document CHEMBL5053500, “Nitric Oxide Induction in Peritoneal Macrophages by a 1,2,3-Triazole Derivative Improves Its Efficacy upon Leishmania amazonensis In Vitro Infection” (J Med Chem, 2021).

Assays:
[1] = Cytotoxicity against BALB/c mouse peritoneal macrophages assessed as reduction in cell viability incubated for 24 hrs by MTT assay; assay type: cell-based, Peritoneal macrophage
[2] = test system: Leishmania amazonensis; experiment: Antileishmanial activity against Leishmania amazonensis (MHOM/BR/76/MA-76) promastigotes assessed as reduction in parasite growth incubated for 24 hrs by MTT assay; assay type: functional, organism-based; settings: MHOM/BR/76/MA-76, 24 h
[3] = Selectivity index, ratio of CC50 for cytotoxicity against BALB/c mouse peritoneal macrophages to IC50 for antileishmanial activity against Leishmania amazonensis (MHOM/BR/76/MA-76) promastigotes; assay type: toxicity; settings: read-out: Ratio CC50/IC50
[4] = Cytotoxicity against human CCD-1072Sk cells assessed as reduction in cell viability at <400 uM measured after 24 hrs by MTT assay; assay type: cell-based

| SMILES | CC50 at 24 h [1] | IC50 [2] | selectivity ratio [3] | Activity [4] |
| --- | --- | --- | --- | --- |
| O=c1ccc2cc(-n3cc(C(O)c4ccccc4-c4ccccc4)nn3)ccc2o1 (centres undefined) | 141 µM | > 200 µM | < 0.7 | Non-Toxic |
| OC(c1ccc(Br)cc1)c1cn(-c2ccc(F)cc2)nn1 (centres undefined) | 182 µM | 45.6 µM | 4 | Non-Toxic |
| CC(=O)c1ccc(-n2cc(C(O)c3ccccc3-c3ccccc3)nn2)cc1 (centres undefined) | 234 µM | 56.6 µM | 4.12 | Non-Toxic |
| OC(c1ccccc1)c1cn(-c2ccc(Br)cc2)nn1 (centres undefined) | > 400 µM | > 200 µM | > 2 | Non-Toxic |
| OC(c1cn(-c2ccc(Br)cc2)nn1)c1ccccc1Br (centres undefined) | 313 µM | > 200 µM | < 1.56 | Non-Toxic |
| OC(c1cn(-c2ccc(Br)cc2)nn1)c1ccccc1F (centres undefined) | > 400 µM | 110 µM | > 3.62 | Non-Toxic |
